This note sets out measurements from patent publication US8021686B2, “Lipid-encapsulated polyanionic nucleic acid” (The University of British Columbia, priority 1997, dated 2011).

Data set [1] is described as follows: pKa of amino lipid. The data set is classed as physicochemical.
Data set [2] is described as follows: Assessment of antisense encapsulation (encapsulation efficiency, drug:lipid ratio). The format is physicochemical. Here is the method:
drug to lipid ratio: The amount of drug (therapeutic agent) in a defined volume of preparation divided by the amount of lipid in the same volume. This may be on a mole per mole basis or on a weight per weight basis, or on a weight per mole basis. For final, administration-ready formulations, the drug:lipid ratio is calculated after dialysis, chromatography and/or enzyme (e.g., nuclease) digestion has been employed to remove as much of the external therapeutic agent (e.g., nucleic acid) as possible.
encapsulation efficiency: the drug to lipid ratio of the starting mixture divided by the drug to lipid ratio of the final, administration competent formulation. This is a measure of relative efficiency. For a measure of absolute efficiency, the total amount of therapeutic agent (nucleic acid) added to the starting mixture that ends up in the administration competent formulation, can also be calculated. The amount of lipid lost during the formulation process may also be calculated. […]
Antisense encapsulation was typically assessed by dual label ([^3H]-antisense and [^14C]-lipid) liquid scintillation counting after gel filtration chromatography to separate the free and encapsulated antisense. Antisense encapsulation was evaluated by summing the total [^3H]-antisense radioactivity associated with the lipid peak and dividing by the total [^3H]-antisense radioactivity. […]

For data set [3], the system named is ICAM-1 gene. The experiment in a line: Ear inflammation model (DNFB contact sensitivity). The format is in vivo, ICR mice. The settings on record: lipid-encapsulated antisense, i.v. 20-30 mg/kg 15 min after DNFB, 24 hours. Here is the method: Mice were sensitized by applying 25 μL of 0.5% 2,4-dinitro-1-fluorobenzene (DNFB) in acetone: olive oil (4:1) to the shaved abdominal wall for two consecutive days. Four days after the second application, mice were challenged on the dorsal surface of the left ear with 10 μL of 0.2% DNFB in acetone:olive oil (4:1). Mice received no treatment on the contralateral (right) ear. In some cases, control mice received 10 μL of vehicle on the dorsal surface of the left ear.
Ear thickness was measured immediately prior to ear challenge, and at various time intervals after DNFB challenge, using an engineer's micrometer (Mitutoyo, Tokyo, Japan). Increases in ear thickness measurements were determined by subtracting the pre-challenge from post-challenge measurements.
Inflamed mice were treated at the time of ear challenge with a 30 mg/kg i.v. dose of either HBS (no oligo), EPC:CHOL liposomes with entrapped PS-3082 (identified as AS 1000), POPC:CHOL:DODAP:PEG-CerC14 with entrapped PS-3082 (identified as AS 4100), or DSPC:CHOL:DODAP:PEG-CerC14 with entrapped PS-3082 (identified as AS 4200). Ear swelling was measured at 24 hours after initiating inflammation using an engineer's micrometer.
Antisense Sample Preparation: Antisense was encapsulated using the standard methods of Examples 5-9, using the phosphodiester modification. […]

Data set [4] has as its system MDA-MB-453 human breast carcinoma. The experiment in a line: Tumor window model, human breast tumor. The settings on record: i.v. 10 mg/kg/administration, 3 administrations/week. The data set is classed as in vivo, mouse. The source says:
The human breast carcinoma line MDA-MB-453 was implanted in a mouse tumor window model according to the method of Wu, N. Z., Da, D., Rudoll, T. L., Needham, D., Whorton, R. & Dewhirst, M. W. 1993. Increased microvascular permeability contributes to preferential accumulation of Stealth liposomes in tumor tissue. Cancer Research 53: 3765-3770; and Dewhirst, M. W., Tso, C. Y., Oliver, R., Gustafson, C. S., Secomb, T. W. & Gross, J. F. 1989. Morpholigic and hemodynamic comparison of tumor and healing normal tissue microvasculature. Int. J. Radiat. Oncol. Biol. Phys. 17: 91-99. See also Dewhirst, M W., and Needham, D. 1995. Extravasation of Stealth Liposomes into Tumors: Direct Measurement of Accumulation and Vascular Permeability using a Skin Flap Window Chamber. In Stealth Liposomes (Eds. Lasic, D. and Martin, F.) CRC Press.
In vivo efficacy evaluation: When the tumor in the window has reached a diameter of 2-3 mm, treatment with free or TCS-encapsulated US3 oligonucleotide is initiated. Treatment consists of a 200 ul intravenous administration (tail vein) of either free US3 or TCS-encapsulated US3 on a 3 administrations/week schedule and an antisense dose of 10 mg/kg/administration. Tumor size is monitored 3 times per week by microscopy.

`CCCCCCCC/C=C\CCCCCCCC(=O)OCC(CN(C)C)OC(=O)CCCCCCC/C=C\CCCCCCCC` (stereo not drawn) [DODAP, 1,2-dioleoyloxy-3-dimethylaminopropane]: the pKa in data set [1] amounted to 6.53.
“PO-2302: human ICAM-1 phosphodiester antisense GCCCAAGCTGGCATCCGTCA (SEQ ID No 2) (DNA, all phosphodiester, methylation of C not given here)”: the “final (administration ready) drug:lipid ratios” value in data set [2] (citrate varied, DSPC:CHOL:DODAP:PEG-CerC14 25:45:20:10) is “greater than 10 % by weight”.
For the compound “PO-3082: murine ICAM-1 phosphodiester antisense TGCATCCCCCAGGCCACCAT (SEQ ID No 1) (DNA, all phosphodiester, methylation of C not given here)”, in data set [3], the “reduction of the degree of inflammation” value is approximately 85%.
As for “PS-3082: murine ICAM-1 phosphorothioate antisense TGCATCCCCCAGGCCACCAT (SEQ ID No 1) (DNA, all phosphorothioate, methylation of C not given here)”, the “reduction of the degree of inflammation” value in data set [3] is reported as “around 70%”.
Regarding “US3: anti-human erb-B-2 antisense GGT GCT CAC TGC GGC (SEQ ID No 3) (antisense GGTGCTCACTGCGGC; all phosphorothioate, sugars by position and methylation of C not given here)”, in data set [4], the “effect on tumor growth” value was “ineffective at inhibiting tumor growth”.
Take “VEGF-R1: human VEGF-R 1 ribozyme GAGUUGCUGAUGAGGCCGAAAGGCCGAAAGUCUG (SEQ ID No 16) (GAGUUGCUGAUGAGGCCGAAAGGCCGAAAGUCUG; chemistry not fully specified)”: the encapsulation efficiency entry in data set [2] (20 mM citrate, FIG. 20) is given as “over 50%”.

The pKa is the pH at which an ionisable group is half protonated. A higher pKa goes with a group that holds its proton tightly.
